# Results published in US11951094B2, “TLR2 modulator compounds, pharmaceutical compositions and uses thereof” (Axial Therapeutics, Inc., priority 2020, dated 2024).
# Target: TLR2 (Homo sapiens, UniProt O60603)
# Assay: TLR2 agonist screening assay, HEK-Blue TLR2 reporter cell line (NF-kB-driven SEAP, absorbance at 600 nm)
# Assay type: cell-based
# Parameters: host or cells: HEK-293 (HEK-Blue TLR2 reporter cell line)
# Conditions: HEK-Blue TLR2 reporter cells, agonist mode; average of all runs (Table 4)
# Outline: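 EC50 values come from 600 nm absorbance of SEAP-converted substrate after overnight agonist exposure. The reporter line was HEK-293 engineered with TLR2 and an NF-kB-SEAP construct, seeded at about 40,000 cells per well 16-24 h beforehand. Compounds were added at 1% final DMSO.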
# Chain of TLR2 (O60603 21-784): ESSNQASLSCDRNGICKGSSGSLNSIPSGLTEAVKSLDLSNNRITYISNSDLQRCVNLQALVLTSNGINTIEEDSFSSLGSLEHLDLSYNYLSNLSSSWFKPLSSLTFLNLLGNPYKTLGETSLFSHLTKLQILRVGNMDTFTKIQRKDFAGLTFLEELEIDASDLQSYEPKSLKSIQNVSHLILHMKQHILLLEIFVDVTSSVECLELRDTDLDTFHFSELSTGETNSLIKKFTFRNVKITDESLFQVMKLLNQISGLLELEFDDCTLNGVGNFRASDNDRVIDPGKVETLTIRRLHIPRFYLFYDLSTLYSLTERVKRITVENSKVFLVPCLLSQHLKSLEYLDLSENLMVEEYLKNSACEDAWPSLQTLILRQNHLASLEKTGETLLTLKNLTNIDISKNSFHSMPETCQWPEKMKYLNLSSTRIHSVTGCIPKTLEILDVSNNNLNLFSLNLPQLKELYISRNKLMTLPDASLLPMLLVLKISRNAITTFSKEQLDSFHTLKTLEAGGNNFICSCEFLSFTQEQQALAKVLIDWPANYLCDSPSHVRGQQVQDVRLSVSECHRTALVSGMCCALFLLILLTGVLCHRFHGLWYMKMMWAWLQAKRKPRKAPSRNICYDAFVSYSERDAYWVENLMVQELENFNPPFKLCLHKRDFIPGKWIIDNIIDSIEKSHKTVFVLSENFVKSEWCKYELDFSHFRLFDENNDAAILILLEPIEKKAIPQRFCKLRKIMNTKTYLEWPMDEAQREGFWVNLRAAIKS
row,SMILES,EC50
1,"O=C(N[C@H]1C[C@@H]1c1ccccc1)[C@@H]1CN(C(=O)C23CCC(C(=O)N4C[C@@H](C(=O)N[C@H]5C[C@@H]5c5ccccc5)[C@H](C(=O)N[C@H]5C[C@@H]5c5ccccc5)C4)(CC2)C3)C[C@H]1C(=O)N[C@H]1C[C@@H]1c1ccccc1 [Compound 081, (3S,3'S,4S,4'S)-1,1′-(bicyclo [2.2.1]heptane-1,4-dicarbonyl) bis (N3,N4-bis((1S,2R)-2-phenylcyclopropyl)pyrrolidine-3,4-dicarboxamide)]",351 to 1000 nM
2,"CCCCCCCCCCCCCCCN[C@@H]1CCN(C(=O)c2ccc(C(=O)N3C[C@@H](C(=O)N[C@H]4C[C@@H]4c4ccccc4)[C@H](C(=O)N[C@H]4C[C@@H]4c4ccccc4)C3)cc2)C1 [Compound 082, (3S,4S)-1-(4-((R)-3-(pentadecylamino)pyrrolidine-1-carbonyl)benzoyl)-N3,N4-bis((1S,2R)-2-phenylcyclopropyl)pyrrolidine-3,4-dicarboxamide]",> 1000 nM
3,"CCCCCCCCCCCCCCS(=O)(=O)N[C@@H]1CCN(C(=O)c2ccc(C(=O)N3C[C@@H](C(=O)N[C@H]4C[C@@H]4c4ccccc4)[C@H](C(=O)N[C@H]4C[C@@H]4c4ccccc4)C3)cc2)C1 [Compound 083, (3S,4S)—N3,N4-bis((1S,2R)-2-phenylcyclopropyl)-1-(4-((R)-3-(tetradecylsulfonamido)pyrrolidine-1-carbonyl)benzoyl)pyrrolidine-3,4-dicarboxamide]",> 1000 nM
4,"CCCCCCCCCCCCCCNC(=O)[C@H]1CN(Cc2ccc(C(=O)N3C[C@@H](C(=O)N[C@H]4C[C@@H]4c4ccccc4)[C@H](C(=O)N[C@H]4C[C@@H]4c4ccccc4)C3)cc2)CCN1C [Compound 084, (3S,4S)-1-(4-(((R)-4-methyl-3-(tetradecylcarbamoyl)piperazin-1-yl)methyl)benzoyl)-N3,N4-bis((1S,2R)-2-phenylcyclopropyl) pyrrolidine-3,4-dicarboxamide]",> 1000 nM
5,"CCCCCCCCCCCCCCCN[C@H]1CN(C(=O)c2ccc(C(=O)N3C[C@@H](C(=O)N[C@H]4C[C@@H]4c4ccccc4)[C@H](C(=O)N[C@H]4C[C@@H]4c4ccccc4)C3)cc2)C[C@@H]1O [Compound 087, (3S,4S)-1-(4-((3S,4S)-3-hydroxy-4-(pentadecylamino)pyrrolidine-1-carbonyl)benzoyl)-N3,N4-bis((1S,2R)-2-phenylcyclopropyl)pyrrolidine-3,4-dicarboxamide]",> 1000 nM
6,"CCCCCCCCCCCCCCNC(=O)[C@@H]1CN(Cc2ccc(C(=O)N3C[C@@H](C(=O)N[C@H]4C[C@@H]4c4ccccc4)[C@H](C(=O)N[C@H]4C[C@@H]4c4ccccc4)C3)cc2)CCN1C [Compound 088, (3S,4S)-1-(4-(((S)-4-methyl-3-(tetradecylcarbamoyl)piperazin-1-yl)methyl)benzoyl)-N3,N4-bis((1S,2R)-2-phenylcyclopropyl) pyrrolidine-3,4-dicarboxamide]",> 1000 nM
7,"CCCCCCCCCCCCCCNC(=O)[C@@H]1CN(C(=O)c2ccc(C(=O)N3C[C@@H](C(=O)N[C@H]4C[C@@H]4c4ccccc4)[C@H](C(=O)N[C@H]4C[C@@H]4c4ccccc4)C3)cc2)C[C@H]1N(C)[C@H](C)c1ccccc1 [Compound 090, (3S,4S)-1-(4-((3S,4R)-3-(methyl((R)-1-phenylethyl)amino)-4-(tetradecylcarbamoyl)pyrrolidine-1-carbonyl)benzoyl)-N3,N4-bis((1S,2R)-2-phenylcyclopropyl)pyrrolidine-3,4-dicarboxamide]",> 1000 nM
8,"CCCCCCCCCCCCCCNC(=O)[C@@H]1CN(C(=O)c2ccc(C(=O)N3C[C@@H](C(=O)N[C@H]4C[C@@H]4c4ccccc4)[C@H](C(=O)N[C@H]4C[C@@H]4c4ccccc4)C3)cc2)C[C@H]1N(C)C [Compound 091, (3S,4S)-1-(4-((3S,4R)-3-(dimethylamino)-4-(tetradecylcarbamoyl)pyrrolidine-1-carbonyl)benzoyl)-N3,N4-bis((1S,2R)-2-phenylcyclopropyl)pyrrolidine-3,4-dicarboxamide]",> 1000 nM
9,"CCCCCCCCCCCCCCNC(=O)[C@H]1CN(Cc2ccc(C(=O)N3C[C@@H](C(=O)N[C@H]4C[C@@H]4c4ccccc4)[C@H](C(=O)N[C@H]4C[C@@H]4c4ccccc4)C3)cc2)C(=O)CN1C [Compound 092, (3S,4S)-1-(4-(((R)-4-methyl-2-oxo-5-(tetradecylcarbamoyl)piperazin-1-yl)methyl)benzoyl)-N3,N4-bis((1S,2R)-2-phenylcyclopropyl)pyrrolidine-3,4-dicarboxamide]",51 to 350 nM
10,"CCCCCCCCCCCCCCNC(=O)[C@@H]1CN(Cc2ccc(C(=O)N3C[C@@H](C(=O)N[C@H]4C[C@@H]4c4ccccc4)[C@H](C(=O)N[C@H]4C[C@@H]4c4ccccc4)C3)cc2)C(=O)CN1C [Compound 093, (3S,4S)-1-(4-(((S)-4-methyl-2-oxo-5-(tetradecylcarbamoyl)piperazin-1-yl)methyl)benzoyl)-N3,N4-bis((1S,2R)-2-phenylcyclopropyl)pyrrolidine-3,4-dicarboxamide]",51 to 350 nM

# Other lines, results leading:
row,EC50,SMILES
1,0.1 to 50 nM,"CCCCCCCCCCCCCNC(=O)N[C@@H]1CCN(C(=O)c2ccc(C(=O)N3C[C@@H](C(=O)N[C@H]4C[C@@H]4c4ccccc4)[C@H](C(=O)N[C@H]4C[C@@H]4c4ccccc4)C3)cc2)C1 [Compound 079, (3S,4S)—N3,N4-bis((1S,2R)-2-phenylcyclopropyl)-1-(4-((R)-3-(3-tridecylureido)pyrrolidine-1-carbonyl)benzoyl)pyrrolidine-3,4-dicarboxamide]"
2,51 to 350 nM,"CCCCCCCO[C@H]1CN(C(=O)c2ccc(C(=O)N3C[C@@H](C(=O)N[C@H]4C[C@@H]4c4ccccc4)[C@H](C(=O)N[C@H]4C[C@@H]4c4ccccc4)C3)cc2)C[C@@H]1NC(=O)CCCCCC [Compound 080, (3S,4S)-1-(4-((3S,4S)-3-heptanamido-4-(heptyloxy)pyrrolidine-1-carbonyl)benzoyl)-N3,N4-bis((1S,2R)-2-phenylcyclopropyl)pyrrolidine-3,4-dicarboxamide]"
3,> 1000 nM,"CCCCCCCN[C@H]1CN(C(=O)c2ccc(C(=O)N3C[C@@H](C(=O)N[C@H]4C[C@@H]4c4ccccc4)[C@H](C(=O)N[C@H]4C[C@@H]4c4ccccc4)C3)cc2)C[C@@H]1OCCCCCCC [Compound 089, (3S,4S)-1-(4-((3S,4S)-3-(heptylamino)-4-(heptyloxy)pyrrolidine-1-carbonyl)benzoyl)-N3,N4-bis((1S,2R)-2-phenylcyclopropyl)pyrrolidine-3,4-dicarboxamide]"
4,0.1 to 50 nM,"CCCCCCCCCCCCCCNC(=O)[C@@H]1CN(C(=O)c2ccc(C(=O)N3C[C@@H](C(=O)N[C@H]4C[C@@H]4c4ccccc4)[C@H](C(=O)N[C@H]4C[C@@H]4c4ccccc4)C3)cc2)C[C@H]1NC [Compound 098, (3S,4S)-1-(4-((3S,4R)-3-(methylamino)-4-(tetradecylcarbamoyl)pyrrolidine-1-carbonyl)benzoyl)-N3,N4-bis((1S,2R)-2-phenylcyclopropyl)pyrrolidine-3,4-dicarboxamide]"
5,> 1000 nM,"CCCCCCNC(=O)CC[C@@H](NC(=O)c1ccc(C(=O)N2C[C@@H](C(=O)N[C@H]3C[C@@H]3c3ccccc3)[C@H](C(=O)N[C@H]3C[C@@H]3c3ccccc3)C2)cc1)C(=O)NCCCCCC [Compound 099, (3S,4S)-1-(4-(((R)-1,5-bis(hexylamino)-1,5-dioxopentan-2-yl)carbamoyl)benzoyl)-N3,N4-bis((1S,2R)-2-phenylcyclopropyl)pyrrolidine-3,4-dicarboxamide]"
